Measured values reported in publication PMC3266722 (Journal of Medicinal Chemistry, 2011).

Assays:
[1] = molecular target: T1, hA1AR (Homo sapiens, UniProt P30542); conditions: percent inhibition of specific radioligand binding at 10 μM; ref [11]; cited from earlier work
T1 sequence (P30542 1-326): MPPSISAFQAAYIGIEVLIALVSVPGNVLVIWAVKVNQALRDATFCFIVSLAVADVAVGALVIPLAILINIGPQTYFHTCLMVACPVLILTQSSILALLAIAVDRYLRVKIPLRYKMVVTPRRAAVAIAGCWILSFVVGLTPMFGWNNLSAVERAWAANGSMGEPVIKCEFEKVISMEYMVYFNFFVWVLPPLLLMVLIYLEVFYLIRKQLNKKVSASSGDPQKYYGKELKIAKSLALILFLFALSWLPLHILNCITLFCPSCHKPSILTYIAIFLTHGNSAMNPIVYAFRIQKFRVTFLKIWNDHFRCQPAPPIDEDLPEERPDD

[2] = molecular target: T2, hA2BAR (Homo sapiens, UniProt P29275); conditions: read-out: EC50, cyclic AMP accumulation at hA2BAR; CHO cells; cited from earlier work
T2 sequence (P29275 1-332): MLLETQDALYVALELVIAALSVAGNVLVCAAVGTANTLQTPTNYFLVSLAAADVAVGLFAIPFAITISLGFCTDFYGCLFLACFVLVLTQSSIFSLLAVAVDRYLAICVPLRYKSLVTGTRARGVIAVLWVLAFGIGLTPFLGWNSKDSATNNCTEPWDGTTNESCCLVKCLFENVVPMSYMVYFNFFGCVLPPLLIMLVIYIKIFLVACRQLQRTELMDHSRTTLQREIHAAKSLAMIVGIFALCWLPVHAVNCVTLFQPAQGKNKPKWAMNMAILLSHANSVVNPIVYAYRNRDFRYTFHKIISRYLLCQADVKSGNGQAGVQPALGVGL

[3] = molecular target: T3, hA2AAR (Homo sapiens, UniProt P29274); conditions: compared to the standard CGS21680; cited from earlier work
T3 sequence (P29274 whole entry): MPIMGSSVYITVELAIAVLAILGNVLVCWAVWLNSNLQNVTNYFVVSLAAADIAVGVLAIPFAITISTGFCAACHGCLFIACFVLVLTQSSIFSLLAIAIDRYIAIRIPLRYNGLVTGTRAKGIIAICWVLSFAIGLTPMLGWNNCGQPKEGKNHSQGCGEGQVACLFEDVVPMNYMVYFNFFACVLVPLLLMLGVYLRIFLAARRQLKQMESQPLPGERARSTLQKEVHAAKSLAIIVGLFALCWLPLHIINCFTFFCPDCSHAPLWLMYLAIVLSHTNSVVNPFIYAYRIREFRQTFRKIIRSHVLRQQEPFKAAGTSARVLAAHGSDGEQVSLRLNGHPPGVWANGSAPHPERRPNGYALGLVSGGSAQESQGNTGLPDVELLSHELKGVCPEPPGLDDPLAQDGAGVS

[4] = molecular target: T3, hA2AAR; conditions: percent inhibition of specific radioligand binding at 10 μM; ref [11]; cited from earlier work
[5] = molecular target: T3, hA2AAR; assay: Radioligand binding assay at human A2A receptor; conditions: ratio of Ki values

Row | Structure (SMILES) | Affinity (% inhibition) hA1 [1] | EC50 [2] | agonist efficacy at hA2AAR [3] | Affinity (% inhibition) hA2A [4] | decrease of hA2AAR binding affinity in comparison to 4g [5]
1 | CCCCC#Cc1nc(N)c2ncn([C@@H]3SCC(O)C3O)c2n1 (stereo in doubt) [Compound 4g, (−)-(2R,3S,4R)-2-(6-Amino-2-(hex-1-ynyl)-9H-purin-9-yl)tetrahydrothiophene-3,4-diol] | 39 ± 10% | ~10 µM | full agonist |  | 
2 | CCCC/C=C/c1nc2c(N)ncnc2n1[C@@H]1SCC(O)C1O (stereo in doubt) [Compound 4r, (−)-(2R,3S,4R)-2-(6-Amino-8-(hex-1-enyl)-9H-purine-9-yl)-tetrahydrothiophene-3,4-diol] | 3.7 ± 2.9% |  |  | 22.8 ± 6.4% | 
3 | CCCCC#Cc1nc(NCc2cccc(Cl)c2)c2ncn([C@@H]3SCC(O)C3O)c2n1 (stereo in doubt) [Compound 4i, (−)-(2R,3S,4R)-2-(6-(3-Chlorobenzylamino)-2-(hex-1-ynyl)-9H-purin-9-yl)tetrahydrothiophene-3,4-diol] |  |  |  |  | 520 fold
4 | CCCC/C=C/c1nc(N)c2ncn([C@@H]3SC[C@@H](O)[C@H]3O)c2n1 [Compound 4m] | 16.2 ± 8.4% |  |  |  | 
5 | CCCCC#Cc1nc2c(N)ncnc2n1[C@@H]1SCC(O)C1O (stereo in doubt) [Compound 4o, (−)-(2R,3S,4R)-2-(6-Amino-8-(hex-1-ynyl)-9H-purine-9-yl)-tetrahydrothiophene-3,4-diol] | 49.3 ± 4.9% |  |  | 46.5 ± 4.3% | 
